Assays:
adjuvant arthritis = experiment: Inhibition to adjuvant arthritis (oral administration); assay type: in vivo, rat (Sprague-Dawley strain); conditions: for Increase in body weight / Weight of the organs: Adrenal glands / Weight of the organs: Spleen / Weight of the organs: Thymus: once a day for 7 days
Protocol: Inhibition to adjuvant arthritis.
According to a method conforming to Fujihira et al [Oyo Yakuri, 5, 169, (1971)], liquid paraffin suspension of Mycobacterium butiricum (hereinafter abbreviated as adjuvant) was injected subcutaneously to right hind paws of male rats (Spraque-Dawley strain) weighing 150 to 170 g in an amount of 0.3 mg/0.05 ml/rat. 14 Days after adjuvant injection, the rats, paws of which swelled to a similar degree, were selected and they were separated into groups. From the 15th day after adjuvant injection, each test compound suspended in 0.3% CMC-Na solution was orally administered once a day for 7 days to the 7 rats in each group in the dose shown in the following table 2.
The 16th, 19th and 22nd days after adjuvant injection the volume of left hand paws (i.e. paws not treated with the adjuvant) of the rats and their body weight were measured. Inhibition percent to the arthritis (edema) is calculated according to the same equation as that used in Experiment 1, and the value of ED40 is calculated on the basis of the inhibition percent. Then the rats were sacrificed with ether and the weight of their thymus, adrenal glands and spleen was determined.

[1] = test system: febrile body temperature (Brewer's yeast); experiment: Antipyretic activity (oral administration); assay type: in vivo, rat (Sprague-Dawley strain); conditions: 250 mg/Kg oral
Protocol: Antipyretic activity (oral administration)
According to a method conforming to Winter, C. A. et al [The Journal of Pharmacology and Experimental Therapeutics 133, 117, (1961)], 20% Brewer's yeast suspension in physiological saline was injected subcutaneously to 5 male rats in each group (Sprague-Dawley strain) weighing 200 to 250 g in an amount of 1.0 ml per 100 g of body weight of the rat. After fasting for 18 hours, each test compound suspended in 1% gum arabic solution was administered orally to the rats in an amount of 1.0 ml per 100 g of body weight. Then, the rectal temperature of the rats was taken.

gastric mucosa = experiment: Effect on gastric mucosa (1) (oral administration); assay type: in vivo, mouse (ddY-strain); parameters: unit not given here; conditions: mice, 4 hours
Protocol: 4 Hours after the administration, the mouse was sacrificed with ether, and its stomach was removed. The stomach was treated with 5% formalin for 3 minutes, and gastric mucosa was observed under a stereoscopic microscope. When gastric lesion in the mucosa was found, the length of each lesion was measured. Degree of gastric damage (i.e. GD50)* was calculated on the basis of the length of the lesion of each mouse.
Remark *: GD50 : The value corresponding to the relative frequency of 50% on the normal probability paper plotted the length of gastric lesions of each mouse.

For `CC(C(=O)C(N)=O)c1ccc(N2Cc3ccccc3C2=O)cc1` (stereo not drawn) [2-oxo-3-[4-(1-oxo-2-isoindolinyl)phenyl]butanamide], the “Inhibition to adjuvant arthritis” value (adjuvant arthritis; 25 mg/Kg oral, 1st day) was 24.0%, the “Inhibition to adjuvant arthritis” value (adjuvant arthritis; 25 mg/Kg oral, 4th day) was 25.1% and the “Inhibition to adjuvant arthritis” value (adjuvant arthritis; 25 mg/Kg oral, 7th day) was 35.2%. The “Increase in body weight” value (adjuvant arthritis; 25 mg/Kg oral) was 28.4 g, the “Weight of the organs: Adrenal glands” value (adjuvant arthritis; 25 mg/Kg oral) was 12.5 ± 1.3 mg/100g of body weight and the “Weight of the organs: Spleen” value (adjuvant arthritis; 25 mg/Kg oral) was 441.1 ± 39.6 mg/100g of body weight. For the same compound, the “Weight of the organs: Thymus” value (adjuvant arthritis; 25 mg/Kg oral) was 146.0 ± 7.3 mg/100g of body weight, the “Inhibition to adjuvant arthritis” value (adjuvant arthritis; 100 mg/Kg oral, 1st day) was 32.7% and the “Inhibition to adjuvant arthritis” value (adjuvant arthritis; 100 mg/Kg oral, 4th day) was 34.5%. For the same compound, the “Inhibition to adjuvant arthritis” value (adjuvant arthritis; 100 mg/Kg oral, 7th day) was 45.3%, the “Increase in body weight” value (adjuvant arthritis; 100 mg/Kg oral) was 40.7 g and the “Weight of the organs: Adrenal glands” value (adjuvant arthritis; 100 mg/Kg oral) was 11.5 ± 0.7 mg/100g of body weight. For the same compound, the “Weight of the organs: Spleen” value (adjuvant arthritis; 100 mg/Kg oral) was 414.2 ± 28.8 mg/100g of body weight, the “Weight of the organs: Thymus” value (adjuvant arthritis; 100 mg/Kg oral) was 147.2 ± 15.6 mg/100g of body weight and the “Drop of febrile body temperature” value [1] was 1 °C. The “Degree of gastric damage (GD50)” value (gastric mucosa; 100 mg/Kg oral) was 1.0, the “Degree of gastric damage (GD50)” value (gastric mucosa; 200 mg/Kg oral) was 7.0 and the “Degree of gastric damage (GD50)” value (gastric mucosa; 400 mg/Kg oral) was 2.5.
